Experimental data from patent publication US10660877B2 (BRISTOL-MYERS SQUIBB COMPANY, priority 2016, dated 2020).
Where two headings read alike, the source gives them in different places.

What was measured:
[1] = target: human TLR7 (Homo sapiens (Human), UniProt Q9NYK1); test: TLR7 inhibition reporter assay (HEK-Blue cells, SEAP reporter, gardiquimod stimulation); assay type: cell-based
[2] = target: human TLR8 (Homo sapiens (Human), UniProt Q9NR97); test: TLR8 inhibition reporter assay (HEK-Blue cells, SEAP reporter, R848 stimulation);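 note: compounds tested from 0.05 nM to 50 µM, 22 h at 37 °C, SEAP measured with HEK-Blue Detection, inhibition relative to agonist plus DMSO versus a known inhibitor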
human TLR8, sequence (Q9NR97 27-1041): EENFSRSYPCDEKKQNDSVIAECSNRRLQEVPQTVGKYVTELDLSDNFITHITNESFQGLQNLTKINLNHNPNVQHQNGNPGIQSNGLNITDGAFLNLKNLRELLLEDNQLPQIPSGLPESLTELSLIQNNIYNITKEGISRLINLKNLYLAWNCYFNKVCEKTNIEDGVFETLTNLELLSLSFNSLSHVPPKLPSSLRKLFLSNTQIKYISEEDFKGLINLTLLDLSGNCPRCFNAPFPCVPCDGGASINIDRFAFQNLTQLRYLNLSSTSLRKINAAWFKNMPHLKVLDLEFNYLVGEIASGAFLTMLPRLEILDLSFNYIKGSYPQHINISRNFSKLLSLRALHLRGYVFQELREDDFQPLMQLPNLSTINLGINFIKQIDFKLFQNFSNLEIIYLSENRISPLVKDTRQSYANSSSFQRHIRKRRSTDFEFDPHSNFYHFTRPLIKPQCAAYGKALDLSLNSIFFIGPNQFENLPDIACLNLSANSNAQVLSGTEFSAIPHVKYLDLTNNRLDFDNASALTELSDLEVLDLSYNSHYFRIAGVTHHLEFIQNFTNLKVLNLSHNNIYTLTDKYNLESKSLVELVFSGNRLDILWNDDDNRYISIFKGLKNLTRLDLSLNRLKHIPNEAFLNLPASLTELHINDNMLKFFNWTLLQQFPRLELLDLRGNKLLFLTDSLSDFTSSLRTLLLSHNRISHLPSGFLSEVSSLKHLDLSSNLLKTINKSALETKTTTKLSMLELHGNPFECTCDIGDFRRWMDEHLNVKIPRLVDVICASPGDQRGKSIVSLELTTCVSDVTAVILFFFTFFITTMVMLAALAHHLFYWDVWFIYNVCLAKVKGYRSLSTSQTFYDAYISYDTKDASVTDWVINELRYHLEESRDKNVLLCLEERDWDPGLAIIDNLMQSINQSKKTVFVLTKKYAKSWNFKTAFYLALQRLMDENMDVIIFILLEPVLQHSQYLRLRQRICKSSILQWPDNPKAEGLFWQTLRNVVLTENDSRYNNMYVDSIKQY

[3] = target: human TLR9 (Homo sapiens (Human), UniProt Q9NR96); test: TLR9 inhibition reporter assay (HEK-Blue cells, SEAP reporter, ODN2006 stimulation);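 note: compounds tested over 0.05 nM to 50 µM, 22 h incubation, inhibition taken as SEAP signal drop from agonist plus DMSO wells toward a known inhibitor control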
human TLR9, sequence (Q9NR96 26-1032): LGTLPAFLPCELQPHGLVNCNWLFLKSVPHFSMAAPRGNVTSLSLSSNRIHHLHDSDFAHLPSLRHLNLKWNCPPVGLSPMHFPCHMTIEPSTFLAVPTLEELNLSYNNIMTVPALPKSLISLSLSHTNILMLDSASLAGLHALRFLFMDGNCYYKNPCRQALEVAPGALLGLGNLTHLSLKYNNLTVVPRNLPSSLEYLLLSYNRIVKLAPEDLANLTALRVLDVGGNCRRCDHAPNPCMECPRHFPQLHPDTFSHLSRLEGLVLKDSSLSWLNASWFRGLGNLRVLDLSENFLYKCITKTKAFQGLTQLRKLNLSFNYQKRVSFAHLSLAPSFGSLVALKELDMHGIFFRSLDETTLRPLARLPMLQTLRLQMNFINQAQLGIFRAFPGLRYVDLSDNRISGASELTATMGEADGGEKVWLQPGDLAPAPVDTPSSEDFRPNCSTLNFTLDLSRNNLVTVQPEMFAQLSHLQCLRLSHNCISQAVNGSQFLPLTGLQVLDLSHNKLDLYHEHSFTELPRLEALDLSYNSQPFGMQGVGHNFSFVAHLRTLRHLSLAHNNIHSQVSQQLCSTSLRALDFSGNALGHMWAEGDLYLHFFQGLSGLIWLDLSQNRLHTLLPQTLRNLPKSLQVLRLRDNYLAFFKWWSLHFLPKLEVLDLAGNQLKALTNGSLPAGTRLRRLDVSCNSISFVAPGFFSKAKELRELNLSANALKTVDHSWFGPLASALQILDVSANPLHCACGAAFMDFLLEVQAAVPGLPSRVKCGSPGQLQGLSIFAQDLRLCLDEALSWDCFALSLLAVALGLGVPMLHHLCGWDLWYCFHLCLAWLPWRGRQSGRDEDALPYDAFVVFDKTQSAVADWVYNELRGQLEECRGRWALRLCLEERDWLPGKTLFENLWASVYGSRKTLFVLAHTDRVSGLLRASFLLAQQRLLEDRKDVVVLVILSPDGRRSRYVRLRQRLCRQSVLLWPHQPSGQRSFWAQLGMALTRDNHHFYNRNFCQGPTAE

[4] = HEK-Blue cells overexpressing human TLR7, gardiquimod 7.5 μM
[5] = read-out: TLR8 IC50, HEK-Blue cells overexpressing human TLR8, R848 15.9 μM
[6] = read-out: TLR9 IC50, HEK-Blue cells overexpressing human TLR9, ODN2006 5 nM
[7] = HEK-Blue cells, gardiquimod 7.5 μM
[8] = read-out: TLR8 IC50, HEK-Blue cells, R848 15.9 μM
[9] = read-out: TLR9 IC50, HEK-Blue cells, ODN2006 5 nM
[10] = TLR8 IC50, HEK-Blue cells overexpressing human TLR8, R848 15.9 μM
[11] = TLR9 IC50, HEK-Blue cells overexpressing human TLR9, ODN2006 5 nM

human TLR7, sequence (Q9NYK1 27-1049): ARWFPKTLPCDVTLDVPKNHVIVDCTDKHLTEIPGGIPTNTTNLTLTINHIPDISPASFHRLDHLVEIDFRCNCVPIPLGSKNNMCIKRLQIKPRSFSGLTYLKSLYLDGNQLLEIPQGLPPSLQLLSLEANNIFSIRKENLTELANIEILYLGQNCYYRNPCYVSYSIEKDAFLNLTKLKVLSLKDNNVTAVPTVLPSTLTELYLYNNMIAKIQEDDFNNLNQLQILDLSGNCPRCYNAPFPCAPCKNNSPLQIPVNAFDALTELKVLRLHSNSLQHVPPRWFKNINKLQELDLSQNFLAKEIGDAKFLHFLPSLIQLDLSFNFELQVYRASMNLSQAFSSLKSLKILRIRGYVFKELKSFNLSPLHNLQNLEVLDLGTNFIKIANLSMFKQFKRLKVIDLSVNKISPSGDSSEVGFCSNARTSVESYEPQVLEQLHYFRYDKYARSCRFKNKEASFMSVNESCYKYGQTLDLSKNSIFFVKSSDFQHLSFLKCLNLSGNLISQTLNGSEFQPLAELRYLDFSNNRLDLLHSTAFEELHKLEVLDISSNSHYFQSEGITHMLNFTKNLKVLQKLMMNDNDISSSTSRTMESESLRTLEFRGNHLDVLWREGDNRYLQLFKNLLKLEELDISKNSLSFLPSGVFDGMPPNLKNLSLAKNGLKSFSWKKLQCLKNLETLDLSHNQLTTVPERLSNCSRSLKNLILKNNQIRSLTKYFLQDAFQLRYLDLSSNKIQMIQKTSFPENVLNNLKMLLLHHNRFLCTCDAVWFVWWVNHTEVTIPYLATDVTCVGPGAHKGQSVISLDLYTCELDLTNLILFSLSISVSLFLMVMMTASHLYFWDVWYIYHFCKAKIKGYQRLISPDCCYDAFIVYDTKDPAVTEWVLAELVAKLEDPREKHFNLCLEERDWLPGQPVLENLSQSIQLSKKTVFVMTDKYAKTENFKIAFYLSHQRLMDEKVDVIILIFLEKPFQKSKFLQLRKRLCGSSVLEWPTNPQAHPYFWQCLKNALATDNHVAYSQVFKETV

| SMILES | IC50 [1, 4] | IC50 [2, 5] | IC50 [3, 6] | IC50 [1, 7] | IC50 [2, 8] | IC50 [3, 9] | IC50 [2, 10] | IC50 [3, 11] |
| --- | --- | --- | --- | --- | --- | --- | --- | --- |
| Cc1cc(-c2[nH]c3ccc(C4CCN(CC(N)=O)CC4)cc3c2C(C)C)c(C)cn1 [Example 651, 2-(4-(2-(2,5-dimethylpyridin-4-yl)-3-isopropyl-1H-indol-5-yl)piperidin-1-yl)acetamide] | 5.3 nM | 2.1 nM | 3740 nM | – | – | – | – | – |
| Cc1cc(-c2[nH]c3ccc(C4CCN(C(=O)c5ccon5)CC4)cc3c2C(C)C)ccn1 [Example 604, (4-(3-isopropyl-2-(2-methylpyridin-4-yl)-1H-indol-5-yl)piperidin-1-yl)(isoxazol-3-yl)methanone] | 24.9 nM | 190 nM | 23000 nM | – | – | – | – | – |
| COCCNC(=O)CN1CCC(c2ccc3[nH]c(-c4cc(C)nc(C)c4)c(C(C)C)c3c2)CC1 [Example 231, 2-(4-(2-(2,6-dimethylpyridin-4-yl)-3-isopropyl-1H-indol-5-yl)piperidin-1-yl)-N-(2-methoxyethyl)acetamide] | 8.6 nM | 10.1 nM | 1130 nM | – | – | – | – | – |
| Cc1cc(-c2[nH]c3ccc(C4CCN(S(=O)(=O)C(C)C)CC4)cc3c2C(C)C)ccn1 [Example 544, 3-isopropyl-5-(1-(isopropylsulfonyl)piperidin-4-yl)-2-(2-methylpyridin-4-yl)-1H-indole] | 119 nM | 245 nM | 12200 nM | – | – | – | – | – |
| Cc1cc(-c2[nH]c3ccc(C4CCN(CC(=O)N(C)CC(C)(C)O)CC4)cc3c2C(C)C)cc(C)n1 [Example 305, 2-(4-(2-(2,6-dimethylpyridin-4-yl)-3-isopropyl-1H-indol-5-yl)piperidin-1-yl)-N-(2-hydroxy-2-methylpropyl)-N-methylacetamide] | 4.9 nM | 11.1 nM | 271 nM | – | – | – | – | – |
| Cc1cc(-c2[nH]c3ccc(C4CCN(C(=O)CNC5(C)CCC5)CC4)cc3c2C(C)C)cc(C)n1 [Example 353, 1-(4-(2-(2,6-dimethylpyridin-4-yl)-3-isopropyl-1H-indol-5-yl)piperidin-1-yl)-2-((1-methylcyclobutyl)amino)ethan-1-one] | 4 nM | 9.5 nM | 429 nM | – | – | – | – | – |
| Cc1cc(-c2[nH]c3ccc(C4CCN(C(=O)CN5CCCC5=O)CC4)cc3c2C(C)C)cc(C)n1 [Example 154, 1-(2-(4-(2-(2,6-dimethylpyridin-4-yl)-3-isopropyl-1H-indol-5-yl)piperidin-1-yl)-2-oxoethyl)pyrrolidin-2-one] | 5.9 nM | 29.5 nM | > 50000 nM | – | – | – | – | – |
| Cc1cc(-c2[nH]c3ccc(C4CCN(CC(=O)NC56CC7CC(CC(C7)C5)C6)CC4)cc3c2C(C)C)cc(C)n1 [Example 224, N-(adamantan-1-yl)-2-(4-(2-(2,6-dimethylpyridin-4-yl)-3-isopropyl-1H-indol-5-yl)piperidin-1-yl)acetamide] | 286 nM | 820 nM | 4130 nM | – | – | – | – | – |
| CC(C)c1c(-c2ccnc(CO)c2)[nH]c2ccc(C3CCNCC3)cc12 [Example 22, (4-(3-isopropyl-5-(piperidin-4-yl)-1H-indol-2-yl)pyridin-2-yl)methanol] | 80.6 nM | 75 nM | 1500 nM | – | – | – | – | – |
| Cc1cc(-c2[nH]c3ccc(C4CCN(CC(=O)N5CC6(COC6)C5)CC4)cc3c2C(C)C)cc(C)n1 [Example 256, 2-(4-(2-(2,6-dimethylpyridin-4-yl)-3-isopropyl-1H-indol-5-yl)piperidin-1-yl)-1-(2-oxa-6-azaspiro[3.3]heptan-6-yl)ethan-1-one] | 4.4 nM | 9.2 nM | 403 nM | – | – | – | – | – |
| Cc1cc(-c2[nH]c3ccc(C4CCN(C(=O)c5ccc6n(c5=O)CCC6)CC4)cc3c2C(C)C)cc(C)n1 [Example 144, 6-(4-(2-(2,6-dimethylpyridin-4-yl)-3-isopropyl-1H-indol-5-yl)piperidine-1-carbonyl)-2,3-dihydroindolizin-5(1H)-one] | 20 nM | 170 nM | > 50000 nM | – | – | – | – | – |
| Cc1cc(-c2[nH]c3ccc(C4CCN(C(=O)[C@H]5CCC[C@@]5(C)N)CC4)cc3c2C(C)C)ccn1 [Example 569, ((1S,2R)-2-amino-2-methylcyclopentyl)(4-(3-isopropyl-2-(2-methylpyridin-4-yl)-1H-indol-5-yl)piperidin-1-yl)methanone] | 14.4 nM | 15 nM | 912 nM | – | – | – | – | – |
| CC(C)c1c(-c2ccnc(Cl)c2F)[nH]c2ccc(C3CCNCC3)cc12 [Example 21, 2-(2-chloro-3-fluoropyridin-4-yl)-3-isopropyl-5-(piperidin-4-yl)-1H-indole] | 1.5 nM | 4 nM | 2980 nM | – | – | – | – | – |
| Cc1cc(-c2[nH]c3ccc(C4CCN(CC(=O)N5CC[C@@H](O)C5)CC4)cc3c2C(C)C)cc(C)n1 [Example 275, (R)-2-(4-(2-(2,6-dimethylpyridin-4-yl)-3-isopropyl-1H-indol-5-yl)piperidin-1-yl)-1-(3-hydroxypyrrolidin-1-yl)ethan-1-one] | 1.6 nM | – | – | – | – | – | 6.8 nM | 67 nM |
| Cc1cc(-c2[nH]c3ccc(C4CCN(CC(=O)N5CC(F)(F)C5)CC4)cc3c2C(C)C)cc(C)n1 [Example 215, 1-(3,3-difluoroazetidin-1-yl)-2-(4-(2-(2,6-dimethylpyridin-4-yl)-3-isopropyl-1H-indol-5-yl)piperidin-1-yl)ethan-1-one] | 4.9 nM | 6 nM | 680 nM | – | – | – | – | – |
| Cc1cc(-c2[nH]c3ccc(C4CCN(Cc5nnn[nH]5)CC4)cc3c2C(C)C)c(F)cn1 [Example 696, 5-(1-((1H-tetrazol-5-yl)methyl)piperidin-4-yl)-2-(5-fluoro-2-methylpyridin-4-yl)-3-isopropyl-1H-indole] | 408 nM | 104 nM | > 50000 nM | – | – | – | – | – |
| Cc1cc(-c2[nH]c3ccc(C4CCN(C(=O)CN(C)CC(O)c5ccccc5)CC4)cc3c2C(C)C)cc(C)n1 (stereo not drawn) [Example 399, 1-(4-(2-(2,6-dimethylpyridin-4-yl)-3-isopropyl-1H-indol-5-yl)piperidin-1-yl)-2-((2-hydroxy-2-phenylethyl)(methyl)amino)ethan-1-one] | 6.1 nM | 66.9 nM | 688 nM | – | – | – | – | – |
| Cc1cc(-c2[nH]c3ccc(C4CCN(CC(=O)N(C)C)CC4)cc3c2C(C)C)cc(F)n1 [Example 500, 2-(4-(2-(2-fluoro-6-methylpyridin-4-yl)-3-isopropyl-1H-indol-5-yl)piperidin-1-yl)-N,N-dimethylacetamide] | 6.3 nM | 14.2 nM | 3320 nM | – | – | – | – | – |
| Cc1cc(-c2[nH]c3ccc(C4CCN(C5COC5)CC4)cc3c2C(C)C)ccn1 [Example 711, 3-isopropyl-2-(2-methylpyridin-4-yl)-5-(1-(oxetan-3-yl)piperidin-4-yl)-1H-indole] | 11 nM | 11.2 nM | 2160 nM | – | – | – | – | – |

More lines, now with the values ahead:

| IC50 [1, 4] | IC50 [2, 5] | IC50 [3, 6] | IC50 [1, 7] | IC50 [2, 8] | IC50 [3, 9] | IC50 [2, 10] | IC50 [3, 11] | SMILES |
| --- | --- | --- | --- | --- | --- | --- | --- | --- |
| 2 nM | 113 nM | 3180 nM | – | – | – | – | – | Cc1cc(-c2[nH]c3ccc(C4CCN(C(=O)c5ccon5)CC4)cc3c2C(C)C)cc(C)n1 [Example 203, (4-(2-(2,6-dimethylpyridin-4-yl)-3-isopropyl-1H-indol-5-yl)piperidin-1-yl)(isoxazol-3-yl)methanone] |
| – | – | – | 31 nM | 248 nM | 10100 nM | – | – | Cc1cc(-c2[nH]c3ccc(C4CCN(CC(=O)O)CC4)cc3c2C(C)C)cc(C)n1 [Example 875, 2-(4-(2-(2,6-dimethylpyridin-4-yl)-3-isopropyl-1H-indol-5-yl)piperidin-1-yl)acetic acid] |
| 1.3 nM | 5.9 nM | 399 nM | – | – | – | – | – | Cc1cc(-c2[nH]c3ccc(C4CCN(C(=O)CCN(C)C)CC4)cc3c2C(C)C)cc(C)n1 [Example 97, 3-(dimethylamino)-1-(4-(2-(2,6-dimethylpyridin-4-yl)-3-isopropyl-1H-indol-5-yl)piperidin-1-yl)propan-1-one] |
| 4.1 nM | 2.2 nM | 335 nM | – | – | – | – | – | Cc1cc(-c2[nH]c3ccc(C4CCN(CC5(C)COC5)CC4)cc3c2C(C)C)cc(C)n1 [Example 475, 2-(2,6-dimethylpyridin-4-yl)-3-isopropyl-5-(1-((3-methyloxetan-3-yl)methyl)piperidin-4-yl)-1H-indole] |
| 4.9 nM | 16.7 nM | 1390 nM | – | – | – | – | – | Cc1cc(-c2[nH]c3ccc(C4CCN(C5COC5)CC4)cc3c2C(C)C)cc(C)n1 [Example 452, 2-(2,6-dimethylpyridin-4-yl)-3-isopropyl-5-(1-(oxetan-3-yl)piperidin-4-yl)-1H-indole] |
| 5.2 nM | 4.5 nM | 396 nM | – | – | – | – | – | COC(C)CN1CCC(c2ccc3[nH]c(-c4cc(C)nc(C)c4)c(C(C)C)c3c2)CC1 (stereo not drawn) [Example 332, 2-(2,6-dimethylpyridin-4-yl)-3-isopropyl-5-(1-(2-methoxypropyl)piperidin-4-yl)-1H-indole] |
| – | – | – | 21.1 nM | 1.5 nM | 3300 nM | – | – | Cc1cc(-c2[nH]c3ccc(C4CCN(CC(O)C(C)C)CC4)cc3c2C(C)C)cc(C)n1 (stereo not drawn) [Example 855, 1-(4-(2-(2,6-dimethylpyridin-4-yl)-3-isopropyl-1H-indol-5-yl)piperidin-1-yl)-3-methylbutan-2-ol] |
| 1.6 nM | 1.7 nM | 303 nM | – | – | – | – | – | Cc1cc(-c2[nH]c3ccc(C4CCN(Cc5ccn[nH]5)CC4)cc3c2C(C)C)cc(C)n1 [Example 441, 5-(1-((1H-pyrazol-5-yl)methyl)piperidin-4-yl)-2-(2,6-dimethylpyridin-4-yl)-3-isopropyl-1H-indole] |
| 2.4 nM | – | – | – | – | – | 33.1 nM | 308 nM | Cc1cc(-c2[nH]c3ccc(C4CCNCC4O)cc3c2C(C)C)cc(C)n1 (single isomer, unassigned) [Example 488B, 4-(2-(2,6-dimethylpyridin-4-yl)-3-isopropyl-1H-indol-5-yl)piperidin-3-ol] |
